In patent US9211310B2, “Use of a Chinese medicine composition in preparing medicaments for treating secondary prevention of myocardial infarction” (TASLY PHARMACEUTICAL GROUP CO., LTD, priority 2010, dated 2015):

Tested on: patients after acute myocardial infarction
Test: Angina pectoris score, total and single (frequency/attack times, duration, pain degree, dose of nitroglycerin), same clinical trial
Assay type: in vivo, human
Source text: In order to better understand the present invention, a multi-center, randomized, double-blind, double-dummy and positive drug controlled trial had been conducted. 3508 patients who were in accordance with the diagnostic standards of AMI for 28 days to 2 years and differentiated as Qi deficiency and blood stagnation syndrome by TCM were studied. 0.5 g Chinese medicine composition prepared by the method of EXAMPLE 1 (Coded as QSYQ) was administrated half an hour after meal, 3 times per day. Aspirine was used as a positive drug. The patients were treated for 1 year and observed for 6 months.
They included the overall survival time, angina pectoris score, TCM symptom score and life quality score, where angina pectoris score, TCM symptom score and life quality score were evaluated at randomization, in 1st, 3rd, 6th, 9th, 12th month after treatment and 18th month after follow-up.
(§1) Total angina pectoris score was described on every observation period and the change of observation in comparison with baseline. T-test or Wilcoxon rank sum test were used for inter-group comparison. Grade of total score was evaluated on every observation and Wilcoxon rank sum test was used for inter-group comparison. T-test and Pairing signed rank sum test were used for analyzing the change of total score on every observation between groups in comparison with the baseline.
(§2) Single angina pectoris score was depicted on every observation time-point and the change of observation in comparison with baseline. Wilcoxon rank sum test was used for inter-group comparison. Pairing signed rank sum test was used for analyzing the change of total score on every observation between groups in comparison with the baseline.
as §1, with “comparison with the baseline. T-test” for “comparison with baseline. T-test”
as §2, with “described” for “depicted”

In the case of CC(=O)Oc1ccccc1C(=O)O [Control group, aspirine], the “change of attack times score, patients (%)” value (“change … (%)” below) (1 month after treatment-baseline, change 0, FAS) was “(74.81%)”, the “change … (%)” value (1 month after treatment-baseline, change 0, PP) was “(74.53%)” and the “change … (%)” value (1 month after treatment-baseline, change 1, FAS) was “(2.07%)”. The “change … (%)” value (1 month after treatment-baseline, change 1, PP) was “(1.95%)”, the “change … (%)” value (1 month after treatment-baseline, change 2, FAS) was “(2.35%)” and the “change … (%)” value (1 month after treatment-baseline, change 2, PP) was “(2.08%)”. The “change … (%)” value (1 month after treatment-baseline, change 3, FAS) was “(0.11%)”, the “change … (%)” value (1 month after treatment-baseline, change 3, PP) was “(0.13%)” and the “change … (%)” value (1 month after treatment-baseline, change 4, FAS) was “(0.06%)”. The “change … (%)” value (1 month after treatment-baseline, change 4, PP) was “(0.07%)”, the “change … (%)” value (1 month after treatment-baseline, change −1, FAS) was “(7.11%)” and the “change … (%)” value (1 month after treatment-baseline, change −1, PP) was “(7.06%)”. For the same compound, the “change … (%)” value (1 month after treatment-baseline, change −2, FAS) was “(11.99%)”, the “change … (%)” value (1 month after treatment-baseline, change −2, PP) was “(12.63%)” and the “change … (%)” value (1 month after treatment-baseline, change −3, FAS) was “(0.34%)”. For the same compound, the “change … (%)” value (1 month after treatment-baseline, change −3, PP) was “(0.40%)”, the “change … (%)” value (1 month after treatment-baseline, change −4, FAS) was “(1.03%)” and the “change … (%)” value (1 month after treatment-baseline, change −4, PP) was “(1.08%)”. For the same compound, the “change … (%)” value (1 month after treatment-baseline, change −5, FAS) was “(0.00%)”, the “change … (%)” value (1 month after treatment-baseline, change −5, PP) was “(0.00%)” and the “change … (%)” value (1 month after treatment-baseline, change −6, FAS) was “(0.11%)”. For the same compound, the “change … (%)” value (1 month after treatment-baseline, change −6, PP) was “(0.07%)”, the “attack times score, patients (%)” value (3 months after treatment, score 0, FAS) was “(40.02%)” and the “attack times score, patients (%)” value (3 months after treatment, score 0, PP) was “(40.46%)”. For the same compound, the “attack times score, patients (%)” value (3 months after treatment, score 1, FAS) was “(14.11%)”, the “attack times score, patients (%)” value (3 months after treatment, score 1, PP) was “(13.92%)” and the “attack times score, patients (%)” value (3 months after treatment, score 2, FAS) was “(41.46%)”. For the same compound, the “attack times score, patients (%)” value (3 months after treatment, score 2, PP) was “(41.89%)”, the “attack times score, patients (%)” value (3 months after treatment, score 4, FAS) was “(4.30%)” and the “attack times score, patients (%)” value (3 months after treatment, score 4, PP) was “(3.60%)”. For the same compound, the “attack times score, patients (%)” value (3 months after treatment, score 6, FAS) was “(0.11%)”, the “attack times score, patients (%)” value (3 months after treatment, score 6, PP) was “(0.14%)” and the “change … (%)” value (3 months after treatment-baseline, change 0, FAS) was “(65.52%)”. For the same compound, the “change … (%)” value (3 months after treatment-baseline, change 0, PP) was “(65.15%)”, the “change … (%)” value (3 months after treatment-baseline, change 1, FAS) was “(3.10%)” and the “change … (%)” value (3 months after treatment-baseline, change 1, PP) was “(2.79%)”. For the same compound, the “change … (%)” value (3 months after treatment-baseline, change 2, FAS) was “(2.24%)”, the “change … (%)” value (3 months after treatment-baseline, change 2, PP) was “(1.83%)” and the “change … (%)” value (3 months after treatment-baseline, change 3, FAS) was “(0.00%)”. The “change … (%)” value (3 months after treatment-baseline, change 4, FAS) was “(0.17%)”, the “change … (%)” value (3 months after treatment-baseline, change 4, PP) was “(0.14%)” and the “change … (%)” value (3 months after treatment-baseline, change −1, FAS) was “(10.96%)”. For the same compound, the “change … (%)” value (3 months after treatment-baseline, change −1, PP) was “(11.21%)”, the “change … (%)” value (3 months after treatment-baseline, change −2, FAS) was “(15.78%)” and the “change … (%)” value (3 months after treatment-baseline, change −2, PP) was “(16.51%)”. For the same compound, the “change … (%)” value (3 months after treatment-baseline, change −3, FAS) was “(0.46%)”, the “change … (%)” value (3 months after treatment-baseline, change −3, PP) was “(0.54%)” and the “change … (%)” value (3 months after treatment-baseline, change −4, FAS) was “(1.43%)”. For the same compound, the “change … (%)” value (3 months after treatment-baseline, change −4, PP) was “(1.56%)”, the “change … (%)” value (3 months after treatment-baseline, change −5, FAS) was “(0.11%)” and the “change … (%)” value (3 months after treatment-baseline, change −5, PP) was “(0.14%)”. For the same compound, the “change … (%)” value (3 months after treatment-baseline, change −6, FAS) was “(0.23%)”, the “change … (%)” value (3 months after treatment-baseline, change −6, PP) was “(0.14%)” and the “attack times score, patients (%)” value (6 months after treatment, score 0, FAS) was “(44.55%)”. The “attack times score, patients (%)” value (6 months after treatment, score 0, PP) was “(45.98%)”, the “attack times score, patients (%)” value (6 months after treatment, score 1, FAS) was “(15.54%)” and the “attack times score, patients (%)” value (6 months after treatment, score 1, PP) was “(15.92%)”. For the same compound, the “attack times score, patients (%)” value (6 months after treatment, score 2, FAS) was “(36.81%)”, the “attack times score, patients (%)” value (6 months after treatment, score 2, PP) was “(36.17%)” and the “attack times score, patients (%)” value (6 months after treatment, score 4, FAS) was “(3.04%)”. For the same compound, the “attack times score, patients (%)” value (6 months after treatment, score 4, PP) was “(1.85%)”, the “attack times score, patients (%)” value (6 months after treatment, score 6, FAS) was “(0.06%)” and the “attack times score, patients (%)” value (6 months after treatment, score 6, PP) was “(0.07%)”. The “change … (%)” value (6 months after treatment-baseline, change 0, FAS) was “(57.95%)”, the “change … (%)” value (6 months after treatment-baseline, change 0, PP) was “(56.80%)” and the “change … (%)” value (6 months after treatment-baseline, change 1, FAS) was “(2.47%)”. The “change … (%)” value (6 months after treatment-baseline, change 1, PP) was “(1.92%)”, the “change … (%)” value (6 months after treatment-baseline, change −1, FAS) was “(15.20%)” and the “change … (%)” value (6 months after treatment-baseline, change −1, PP) was “(16.07%)”. The “change … (%)” value (6 months after treatment-baseline, change −2, FAS) was “(18.70%)”, the “change … (%)” value (6 months after treatment-baseline, change −2, PP) was “(19.92%)” and the “change … (%)” value (6 months after treatment-baseline, change −3, FAS) was “(0.92%)”. The “change … (%)” value (6 months after treatment-baseline, change −3, PP) was “(1.10%)”, the “change … (%)” value (6 months after treatment-baseline, change −4, FAS) was “(1.78%)” and the “change … (%)” value (6 months after treatment-baseline, change −4, PP) was “(1.92%)”. For the same compound, the “change … (%)” value (6 months after treatment-baseline, change −5, FAS) was “(0.00%)”, the “change … (%)” value (6 months after treatment-baseline, change −5, PP) was “(0.00%)” and the “change … (%)” value (6 months after treatment-baseline, change −6, FAS) was “(0.34%)”. For the same compound, the “change … (%)” value (6 months after treatment-baseline, change −6, PP) was “(0.27%)”, the “attack times score, patients (%)” value (9 months after treatment, score 0, FAS) was “(47.31%)” and the “attack times score, patients (%)” value (9 months after treatment, score 0, PP) was “(49.06%)”. For the same compound, the “attack times score, patients (%)” value (9 months after treatment, score 1, FAS) was “(20.30%)”, the “attack times score, patients (%)” value (9 months after treatment, score 1, PP) was “(21.62%)” and the “attack times score, patients (%)” value (9 months after treatment, score 2, FAS) was “(30.22%)”. The “attack times score, patients (%)” value (9 months after treatment, score 2, PP) was “(28.34%)”, the “attack times score, patients (%)” value (9 months after treatment, score 4, FAS) was “(2.06%)” and the “attack times score, patients (%)” value (9 months after treatment, score 4, PP) was “(0.83%)”. For the same compound, the “attack times score, patients (%)” value (9 months after treatment, score 6, FAS) was “(0.11%)”, the “attack times score, patients (%)” value (9 months after treatment, score 6, PP) was “(0.14%)” and the “attack times score, patients (%)” value (12 months after treatment, score 0, FAS) was “(52.12%)”. The “attack times score, patients (%)” value (12 months after treatment, score 0, PP) was “(55.03%)”, the “attack times score, patients (%)” value (12 months after treatment, score 1, FAS) was “(22.02%)” and the “attack times score, patients (%)” value (12 months after treatment, score 1, PP) was “(23.88%)”. The “attack times score, patients (%)” value (12 months after treatment, score 2, FAS) was “(23.91%)”, the “attack times score, patients (%)” value (12 months after treatment, score 2, PP) was “(20.53%)” and the “attack times score, patients (%)” value (12 months after treatment, score 4, FAS) was “(1.89%)”. The “attack times score, patients (%)” value (12 months after treatment, score 4, PP) was “(0.56%)”, the “attack times score, patients (%)” value (12 months after treatment, score 6, FAS) was “(0.06%)” and the “change … (%)” value (12 months after treatment-baseline, change 0, FAS) was “(45.61%)”. For the same compound, the “change … (%)” value (12 months after treatment-baseline, change 0, PP) was “(41.86%)”, the “change … (%)” value (12 months after treatment-baseline, change 1, FAS) was “(2.07%)” and the “change … (%)” value (12 months after treatment-baseline, change 1, PP) was “(1.33%)”. The “change … (%)” value (12 months after treatment-baseline, change 2, FAS) was “(1.72%)”, the “change … (%)” value (12 months after treatment-baseline, change 2, PP) was “(1.19%)” and the “change … (%)” value (12 months after treatment-baseline, change 3, FAS) was “(0.06%)”. The “change … (%)” value (12 months after treatment-baseline, change 4, FAS) was “(0.17%)”, the “change … (%)” value (12 months after treatment-baseline, change 4, PP) was “(0.14%)” and the “change … (%)” value (12 months after treatment-baseline, change −1, FAS) was “(22.89%)”. For the same compound, the “change … (%)” value (12 months after treatment-baseline, change −1, PP) was “(25.44%)”, the “change … (%)” value (12 months after treatment-baseline, change −2, FAS) was “(23.01%)” and the “change … (%)” value (12 months after treatment-baseline, change −2, PP) was “(25.02%)”. The “change … (%)” value (12 months after treatment-baseline, change −3, FAS) was “(0.86%)”, the “change … (%)” value (12 months after treatment-baseline, change −3, PP) was “(1.05%)” and the “change … (%)” value (12 months after treatment-baseline, change −4, FAS) was “(3.16%)”. For the same compound, the “change … (%)” value (12 months after treatment-baseline, change −4, PP) was “(3.56%)”, the “change … (%)” value (12 months after treatment-baseline, change −5, FAS) was “(0.06%)” and the “change … (%)” value (12 months after treatment-baseline, change −5, PP) was “(0.07%)”. The “change … (%)” value (12 months after treatment-baseline, change −6, FAS) was “(0.40%)”, the “change … (%)” value (12 months after treatment-baseline, change −6, PP) was “(0.35%)” and the “attack times score, patients (%)” value (Baseline, score 0, FAS) was “(27.54%)”. The “attack times score, patients (%)” value (Baseline, score 0, PP) was “(26.99%)” and the “attack times score, patients (%)” value (Baseline, score 1, FAS) was “(9.06%)”.
